Measured values as given in patent US7326542B2, “Compositions and methods for regulating bacterial pathogenesis” (priority 1998, dated 2008).
Read-outs that look alike come from different tables or passages of the source.

Legend:
[1] = tested on: V. harveyi reporter strain BB170 (Sensor 1-, Sensor 2+); format: cell-based, Vibrio harveyi
Description: Cell-free culture fluids from E. coli, S. typhimurium and V. harveyi strains were tested for the presence of signaling substances that could induce luminescence in the V. harveyi reporter strain BB170 or BB886. […] The microtiter dishes were shaken in a rotary shaker at 175 rpm at 30° C.
The cell density was measured by diluting the same aliquots of cells used for measuring luminescence, spreading the dilutions onto solid LM medium, incubating the plates overnight at 30° C., and counting the resulting colonies the following day. […] Cell-free culture supernatants from V. harveyi or S. typhimurium strains were added to a final concentration of 10% (v/v) at the time of the first measurement. In control experiments, 10% (v/v) of AB medium, LB medium or LB medium containing 0.5% glucose was added instead of cell-free culture fluids.

[2] = tested on: ftsQ1p2p-lacZ fusion in E. coli MC4100/pMS207; assay: SdiA regulated ftsQ1p2p-lacZ reporter, galactosidase; format: cell-based; details: 10% (v/v) 0.4 M NaCl osmotic shock fluids containing AI-2 activity, 2 h
Text: Analysis of the effect of autoinducer on SdiA regulated gene expression. A sequence that includes the ftsQ1p and ftsQ2p promoters (Wang et al., 1991, supra) was amplified from E. coli MG1655 chromosomal DNA using the following primers: ftsQ1p, 5′-[…]-3′ (SEQ ID NO: 19); ftsQ2p, 5′-[…]-3′ (SEQ ID NO: 20). The amplified product contained both the ftsQ promoters and the first 14 codons of the ftsQ gene flanked by BamHI and Bg1II sites. The ftsQ1p2p PCR product was cloned into the BamHI site of vector pMLB 1034 (Silhavy et al., Experiments with Gene Fusions, Cold Spring Harbor Press, 1984) to generate a lacZ fusion that contained the promoters, ribosome binding site, and initiation codon of ftsQ. A correctly oriented clone, pMS207, and a clone containing the ftsQ1p2p insert in the opposite orientation, pMS209, were chosen for further analysis. Both inserts were sequenced to ensure that no errors were introduced during the PCR reaction.
For ftsQ regulation in E. coli, the plasmids pMS207 and pMS209 were transformed into E. coli strain MC4100 (Silhavy et al., 1984, supra), and the transformants were grown overnight in LB containing 100 mg/L ampicillin at 30° C. with aeration. For rck regulation, S. typhimurium strains BA1105 (rck::MudJ) and BA1305 (rck::MudJ sdiA) were grown overnight in LB containing 100 mg/L kanamycin at 30° C. with aeration. […]

[3] = tested on: rck::MudJ fusion in S. typhimurium (sdiA+ and sdiA-); assay: SdiA regulated rck::MudJ fusion, galactosidase; format: cell-based; details: addition of AI-2 from E. coli or S. typhimurium, 2 h
Description: For ftsQ regulation in E. coli, the plasmids pMS207 and pMS209 were transformed into E. coli strain MC4100 (Silhavy et al., 1984, supra), and the transformants were grown overnight in LB containing 100 mg/L ampicillin at 30° C. with aeration. For rck regulation, S. typhimurium strains BA1105 (rck::MudJ) and BA1305 (rck::MudJ sdiA) were grown overnight in LB containing 100 mg/L kanamycin at 30° C. with aeration. The overnight cultures were diluted 20-fold into fresh medium and grown for an additional 4.5 h. At this time, each culture was divided into five identical aliquots and 10% (v/v) of one of the following was added to each aliquot: LB, 0.4 M NaCl, […] osmotic shock fluids from S. typhimurium LT2, E. coli 0157 or E. coli strain DH5 (negative control). The osmotic shock fluids were prepared as described above, following pre-growth of the S. typhimurium LT2 and E. coli in LB containing 0.5% glucose for 6 h. The cell suspensions were incubated at 30° C. for 2 h, after which standard-galactosidase reactions were performed on the samples (Miller, A Short Course in Bacterial Genetics, Cold Spring Harbor Laboratory Press, 1992).

[4] = Stability of the signaling activity (acid, base, heat, storage); format: physicochemical
[5] = tested on: V. harveyi luxN, luxS double mutant reporter strain; assay: V. harveyi luxN, luxS double mutant reporter strain luminescence assay; format: cell-based, Vibrio harveyi; details: AI-1 from MM30 and AI-2 from BB152 culture fluids
Description: Verification that the luxN, luxS Double Mutant Responds to AI-2. […] This was verified in a luminescence assay for response to V. harveyi AI-1 and AI-2. V. harveyi strain MM30 (luxS::Tn5) which is phenotypically AI-1^+, AI-2^−, and V. harveyi strain BB152 (luxM::Tn5) which is phenotypically AI-1^−, AI-2^+ were used as the sources of AI-1 and AI-2 respectively. The AI-1 and AI-2 present in culture fluids of these strains was tested for stimulation of light production of the V. harveyi luxN, luxS double mutant reporter strain. In this assay, autoinducer preparations from MM30, BB152 or sterile medium controls were added to the wells of microtiter plates, followed by the addition of the V. harveyi reporter strain. The resulting light production was monitored using a liquid scintillation counter in the chemiluminescence mode. Maximal stimulation of light production in the V. harveyi luxN, luxS reporter strain was compared to that produced by the Sensor 1^+, Sensor 2^− V. harveyi strain BB886 and the Sensor 1^−, Sensor 2^+ V. harveyi strain BB170. These two V. harveyi strains are routinely used in this assay as reporters of AI-1 and AI-2 activity respectively.

[6] = tested on: V. harveyi reporter strain BB886 (Sensor 1+, Sensor 2-); assay: V. harveyi BB886 luminescence bioassay (AI-1 / Signaling System 1); format: cell-based, Vibrio harveyi; details: non self-stimulating sensor-1+, sensor-2- mutant (BB886)
Description: Assay for production of signaling compounds. Cell-free culture fluids from E. coli, S. typhimurium and V. harveyi strains were tested for the presence of signaling substances that could induce luminescence in the V. harveyi reporter strain BB170 or BB886. In the assays, 10 1 of cell-free culture fluids from E. coli AB1157, E. coli DH5, and S. typhimurium LT2 strains grown and harvested as described above were added to 96-well microtiter dishes. The V. harveyi reporter strain BB170 or BB886 was grown for 16 h at 30° C. with aeration in AB medium, diluted 1:5000 into fresh AB medium, and 90 1 of the diluted cells were added to the wells containing the E. coli and S. typhimurium cell-free culture fluids. Positive control wells contained 10 1 of cell-free culture fluid from strain V. harveyi BB152 (Autoinducer-1^−, Autoinducer-2^+) or V. harveyi BB 120 (Autoinducer-1^+, Autoinducer-2^+). Negative control wells contained 10 1 of sterile growth medium. […] Every hour, light production was measured using a Wallac Model 1450 Microbeta Plus liquid scintillation counter in the chemiluminescence mode. The V. harveyi cell density was measured by diluting the same aliquots of cells used for measuring luminescence, spreading the dilutions onto solid LM medium (Bassler et al., 1993, supra), incubating the plates overnight at 30C., and counting the resulting colonies the following day. […]

In the case of `O=C(O)CCC(=O)C(=O)O` [-ketoglutarate], the “activity of candidates for the signal in inducing luminescence” value (“activity of candidates for the signal” below) [1] is reported as “None of these compounds has activity”.

With `CC(=O)O` [acetate] the “activity of candidates for the signal” value [1] was “None of these compounds has activity”.

For `N[C@H]1CCOC1=O` [homoserine lactone], the “activity of candidates for the signal” value [1] was “None of these compounds has activity”.

With `CC(=O)C(=O)C(O)CO` (stereo not drawn) [AI-2, 4,5-dihydroxy-2,3-pentanedione] the “stimulation in light production by AI-2 produced in vitro” value ([1]; dialyzed LuxS- cell extract + SAM + LuxS protein, 60 min, material with MW<5000) was “over 500 fold”, the “change of galactosidase activity of ftsQ1p2p-lacZ fusion” value [2] was “did not change” and the “change in galactosidase production of rck::MudJ” value [3] was “No change”. For the same compound, the “acid and base stability of the activity” value [4] was “acid stable and base labile”, the “heat resistance of the activity” value [4] was “heat resistant to about 80 but not 100 °C” and the “acid and base stability of the activity” value ([4]; listed as signaling activity) was “acid stabile and base labile”. For the same compound, the “heat resistance of the activity” value ([4]; listed as signaling activity) was “heat resistant to 80 but not 100 °C”, the “acid and base stability of the activity” value ([4]; listed as signaling compound) was “acid stable and base labile” and the “heat resistance of the activity” value ([4]; listed as signaling compound) was “heat resistant to 80 °C but not 100 °C”. For the same compound, the “light production in response to exogenous autoinducer” value [5] was “stimulated to produce light”.

For `C[C@@H](O)CC(=O)N[C@H]1CCOC1=O` [AI-1, N-(3-hydroxybutanoyl)-L-homoserine lactone, reference compound], the “lowest concentration the assay was sensitive to” value [6] was 100 nM and the “light production in response to exogenous autoinducer” value [5] was “not”.
